Results as given in patent US9758412B2, “Device for purifying liquid wastewater, and method for cleaning liquid wastewater using said device” (CENTRE NATIONAL DE LA RECHERCHE SCIENTIFIQUE (C.N.R.S.), priority 2012, dated 2017).

Experiments:
Xenopus larvae [1] = settings: cyclophosphamide 20 mg/L in river water; compared with negative control T(−) and sanitized water D8
Xenopus larvae [2] = settings: stage 50 to 54, devices: diuron-spiked tank water after 10 days of circulation, T(+): cyclophosphamide 20 mg/L in river water
Experimental: The mass of Tubifex tubifex worms is of the order of 500 mg (fresh weight) per sanitizing device and is representative of the average density of these oligochaete worms in the natural environment (56 000 oligochaete worms/m^2 of river).
The acute toxicity of the sanitized water is measured by incubating Xenopus larvae, selected at a stage of development of 50 to 54 […], for a period of 12 days with said sanitized water on larvae. This measurement permits observation of the signs of intoxication of the larvae induced by exposure to the water obtained at the outlet of the sanitizing device at the end of treatment.

Which “Genotoxicity (induction of micronuclei)” value (Xenopus larvae [1]) does the source give for `O=P1(N(CCCl)CCCl)NCCCO1` (stereo not drawn) [T(+), cyclophosphamide] here?
The value was “confirmed genotoxicity”.

And the “Toxicity, 1 to 5 days” value (Xenopus larvae [2])?
Its value is “Lethal”.

What about the “Toxicity, 5 to 12 days” value (Xenopus larvae [2]) of the same compound?
Its value is “Lethal”.
